Reference: PubChem BioAssay AID449764 (Southern Research Specialized Biocontainment Screening …, 2010)

Tested on: Mycobacterium tuberculosis H37Rv growth inhibition, no glycerol
Experiment: Confirmatory growth inhibition assay, Mycobacterium tuberculosis H37Rv, absence of glycerol (AID 449764);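 also: growth read after 7 days of incubation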
Conditions: for IC90: measured here: IC90 growth inhibition

Structure (SMILES) | IC50 | IC90
Cc1ccc(S(=O)(=O)Nc2cccc3ncccc23)s1 | 3.38 µM | 6.54 µM
Cc1ccc(C(C)C)c(OCC(=O)OCc2c(C)noc2C)c1 | 4.65 µM | 6.88 µM
CC(/C=N/NC(=O)c1cc(-c2ccc3ccccc3c2)n[nH]1)=C\c1ccco1 | 43.8 µM | 66.8 µM
Cc1ccn2c(-c3csc(NCc4ccccc4)n3)c(C)nc2c1 | 45.5 µM | 51.5 µM
CN1C2CCC1/C(=C/c1ccccn1)C(=O)/C2=C\c1ccccn1 | 23.4 µM | 26.8 µM
COC(=O)CSc1ncnc2c1cnn2-c1ccc(C)cc1C | 6.02 µM | 6.82 µM
Cc1ccc(OC(=O)CCN2C(=O)c3ccccc3C2=O)cc1C | 85.1 µM | > 100 µM
Cc1ccc(Cn2nnnc2CN2CCC(c3nc4ccc(Cl)cc4[nH]3)CC2)cc1 | 31 µM | 40.8 µM
CC/C(=C(\c1ccc(O)cc1)c1ccc(OCCN(C)C)cc1)c1ccccc1 | 26.5 µM | 45 µM
COc1ccc(/C=N/Nc2cc(C)nc3ccc(OC)cc23)c(OC)c1 | 16.3 µM | 19.7 µM
Cc1oc(-c2cccc(Cl)c2)nc1CN1CCC(C(=O)N2CCN(c3ccccc3F)CC2)CC1 | 18.7 µM | 26.4 µM
Cc1ccc(S(=O)(=O)N2CCC(C(=O)OCc3ccccc3)CC2)cc1C | 46.5 µM | 52.2 µM
COc1cccc(-c2cc3nc4c(c(NCC(C)(C)CN(C)C)n3n2)CCCC4)c1 | 27.5 µM | 36.3 µM
Cc1cccc2c1N(CCCOc1ccc(C(C)(C)C)cc1)C(=O)C2=O | 17.4 µM | 20.1 µM
COc1ccccc1C1CC(c2c(-c3ccccc3)c3cc(Cl)ccc3[nH]c2=O)=NN1S(C)(=O)=O (configuration not stated) | – | > 100 µM
COc1ccc(-c2csc3ncnc(N4CCN(c5ccccc5OC)CC4)c23)cc1 | 22.8 µM | 25.5 µM
O=C1CCCC2=C1C1c3ccccc3C(=O)N1c1ccc(C(=O)c3ccccc3)cc1N2 (configuration not stated) | 22 µM | 24.4 µM
COc1ccc(CCNc2cc(-c3ccccc3)nc3ncnn23)cc1 | < 0.2 µM | 27.3 µM
Cc1ccc(-c2noc(-c3cc4ccccc4oc3=O)n2)cc1 | 11.4 µM | > 100 µM
CO[C@@]12[C@H](COC(N)=O)C3=C(C(=O)C(C)=C(N)C3=O)N1C[C@@H]1N[C@@H]12 | 74.9 µM | > 100 µM
COc1ccc(-c2cc(C3CCN(Cc4cccc(C(F)(F)F)c4)CC3)[nH]n2)cc1 | 13.3 µM | 24.9 µM
O=C(Nc1ccc([N+](=O)[O-])cc1)Nc1ccc(OC(F)F)c(Cl)c1 | 2.5 µM | 3.63 µM
Cc1nn(Cc2ccccc2Cl)c2sc(C(=O)NCCCn3ccnc3)cc12 | 37.4 µM | 56 µM

Structure (SMILES) | IC50 | IC90
CCOC(=O)CSc1nnc(NC(=O)c2ccc3c(c2)OCO3)s1 | 11.4 µM | 20.2 µM
CC(=O)c1c(N2CCCC2)[nH]c(-c2ccccc2)nc1=S | 81.4 µM | > 100 µM
O=S1(=O)CCC(N=Cc2ccc(-c3ccc(Cl)cc3)o2)C1 (configuration not stated) | – | > 100 µM
COC(=O)CSc1nnc(CNc2ccc(Cl)cc2)n1-c1ccccc1 | 22.4 µM | 25.3 µM
Cc1ccc(C(=O)n2c(N)nc3ccccc32)cc1 | 89.9 µM | > 100 µM
COc1ccc(N=c2cc(-c3ccc(O)cc3)oc3ccccc23)cc1 | 23.3 µM | 26.5 µM
O=C(CNC(=O)c1ccco1)OCc1ccc(C(=O)Oc2ccccc2)cc1 | 16.6 µM | 26.6 µM
CCCCn1c(O)c(/C=C2/C=CC=N2)c(=O)[nH]c1=O | 12.1 µM | 23.6 µM
FC(F)(Cl)c1nnc2ccc(Cl)nn12 | 0.73 µM | 0.8 µM
CC(C)(O)[C@H]1O[C@H]2CC[C@@]3(C)[C@@](O)(CC[C@H]4Cc5c([nH]c6ccccc56)[C@@]43C)C2=CC1=O | 48.7 µM | > 100 µM
CN(C)CCOc1nc(-c2ccccc2)nc2c1oc1ccccc12 | 19.1 µM | 25.6 µM
CCCc1cc(C(N)=S)ccn1 | 17.1 µM | > 100 µM
O=C(C1CC1)N1CCCC(c2ccc(Cl)cc2)=N1 | 42.3 µM | 63.5 µM
Cc1nc2scc(-c3cccs3)c2c(=O)n1-n1cccc1 | 88.7 µM | > 100 µM
COc1ccc(-n2nc3c(c2NC(=O)CCl)CSC3)cc1 | 6.92 µM | 12.5 µM
CCOC(=O)C1CCN(c2cc3c(cc2NC(=O)c2ccccc2Cl)n(C)c(=O)n3C)CC1 | 44.8 µM | 51.2 µM
Cc1ccccc1N/N=C/c1c(C)nc2ccccn12 | 57.8 µM | 72.5 µM
CCOC(=O)CN(C#N)c1nc(N(C)C)nc(N(C)C)n1 | 12.8 µM | 14.6 µM
COc1ccc(C(CC(=O)c2ccccc2)S(=O)(=O)c2ccc(C)cc2)cc1 (configuration not stated) | 56.3 µM | 92.2 µM
COc1ccc(-c2ccc(-c3noc(C(C)C)n3)c(OC)n2)cc1 | 40.3 µM | 54.6 µM
O=C(Nc1nnc(C2=COCCO2)o1)c1ccc(Cc2ccccc2)cc1 | 11.7 µM | 20.3 µM
O=C1/C(=C\c2ccncc2)CCc2ccccc21 | 45.9 µM | 49.7 µM
COc1ccc(C2Oc3ccccc3C3=C2C(c2cccs2)n2ncnc2N3)cc1 (configuration not stated) | 78.9 µM | > 100 µM

Structure (SMILES) | IC50 | IC90
CC(Oc1cc2oc(=O)c3c(c2cc1Cl)CCCC3)C(=O)NCc1ccccn1 (configuration not stated) | – | > 100 µM
CCOc1ccc(-c2cnc(NCc3cccc4ccccc34)n2CCOC)cc1 | 7.03 µM | 11 µM
O=c1c2c(nc3nc(NCc4ccc(Cl)cc4)[nH]n13)CCC2 | 9.12 µM | 14.3 µM
Nc1[nH]n2c(=O)cc(-c3ccccc3)nc2c1N=Nc1ccc2c(c1)OCO2 | 33.2 µM | 50.2 µM
C=C(C)CSc1cc(C)c(C#N)c2nc3ccccc3n12 | 31.5 µM | 52.3 µM
COC(=O)CCc1nc2c(C#N)c(-c3ccc(Cl)cc3)ccn2n1 | 2.71 µM | 5.22 µM
Cc1ccc(NC(=O)Cc2ccc(-c3ccccc3)cc2)nc1 | 86.6 µM | > 100 µM
C[N+](C)(CCCCCC[N+](C)(C)CCCN1C(=O)c2cccc3cccc(c23)C1=O)CCCN1C(=O)c2cccc3cccc(c23)C1=O | 3.64 µM | 5.15 µM
CCc1c(C)sc2nc3c(C(=O)N4CCOCC4)cc(C(=O)c4cc(F)ccc4O)cn3c(=O)c12 | 82.2 µM | > 100 µM
Cc1ccc2nc(=O)c(NNc3ccccc3)cnc2c1 | 35.3 µM | > 100 µM
CCCn1nnnc1NC(=O)c1ccc(C)cc1Cl | 16.1 µM | 33.1 µM
CCN1c2ccccc2N(C)C1(C)c1ccccc1 (configuration not stated) | 8.65 µM | 10.5 µM
COc1ccc(C(CCNCc2ccc(OC(C)C)cc2)C(C)C)cc1 (configuration not stated) | 23.8 µM | 32.4 µM
CC(C(c1ccc2c(c1)OCO2)c1c(N)n(C)c(=O)n(C)c1=O)[N+](=O)[O-] (configuration not stated) | 8.17 µM | 11.8 µM
Cc1ccc(-n2nc(C)c3c(C)c(CCC(=O)Nc4ccc(CN5CCCC5)cc4)c(C)nc32)cc1 | 15.7 µM | 22.1 µM
COC(=O)c1ccc2c(=O)[nH]c(CSc3nc(C)cs3)nc2c1 | 71.2 µM | > 100 µM
C=CCOC(=O)COc1ccc2c(C)c(CC)c(=O)oc2c1 | 1.49 µM | 1.68 µM
C[C@@H]1CCCCCCCCC(=O)OCCN[C@H](C)CCCCCCCCC(=O)OCCN[C@H](C)CCCCCCCCC(=O)OCCN1 | 31.8 µM | 43.3 µM
NC(=O)c1cccn1-c1ncc(C(F)(F)F)cc1Cl | 14.4 µM | 28.1 µM
O=C(N/N=C/c1ccc([N+](=O)[O-])o1)c1sc2ccccc2c1Cl | 5.69 µM | 8.72 µM
CCCc1cc(NC(=O)CCl)n(-c2ccccc2)n1 | 2.93 µM | 3.32 µM
Cc1oc(C(=O)Nc2ccc(O)cc2)cc1COc1ccccc1 | 15.2 µM | 35.1 µM
Cc1ccc2nc(-c3ccncc3)cc(-c3ccccc3)c2c1 | 43.8 µM | 48.6 µM

Structure (SMILES) | IC50 | IC90
O=C(NCCc1ccccc1)[C@@H]1CC=C[C@@H]2CCN(Cc3ccc(Cl)c(Cl)c3)C(=O)[C@@H]21 | 63.8 µM | 85.5 µM
Cc1ccc(C)c(N2CCN(C(=O)c3ccc4nc(N5CCOCC5)sc4c3)CC2)c1 | 35.2 µM | 47.6 µM
CN1OC(COC(=O)c2ccc(Cl)cc2Cl)CC1c1ccccc1 (configuration not stated) | 7.6 µM | 22.3 µM
CC1=C(C)C(=O)C(CCCCC#CCCCC#CCO)=C(C)C1=O | 24 µM | 26.2 µM
CCOc1cc(C=O)cc(N=Nc2cccc([N+](=O)[O-])c2)c1O | 8.41 µM | 13.5 µM
C(=C\c1nccc2c1[nH]c1ccccc12)/c1ccccc1 | 31.2 µM | 42.7 µM
Nc1c(C(=O)OCC2CCCO2)c2nc3ccccc3nc2n1C1CCCC1 (configuration not stated) | 60.7 µM | 86.8 µM
S=C(NCCc1ccccc1)NN=C1CCCCCC1 | 45.8 µM | 50.1 µM
CN(C)CCNc1ncnc2c1sc1nc(-c3ccccc3)c3c(c12)CCCC3 | 22.5 µM | 24.2 µM
Oc1ccc(-[n+]2c(-c3ccccc3)cc(-c3ccccc3)cc2-c2ccccc2)cc1 | 14.3 µM | 17.2 µM
CCCc1ccc(C2=Nn3c(nnc3C(C)C)SC2)cc1 | 29.6 µM | 51.1 µM
O=C(Nc1ccc(Cl)cc1)N(C1=NCCC1)c1ccc(OC(F)F)cc1 | 64.7 µM | > 100 µM
S=c1nc[nH]c2nc[nH]c12 | 3.32 µM | 5.19 µM
CCOC(=O)c1cc(-c2csc(Nc3c(C)cc(C)cc3C)n2)on1 | 1.09 µM | 1.62 µM
CCN=c1scc(-c2ccco2)n1/N=C/c1ccc(OC)c(O)c1 | 23.2 µM | 35.1 µM
CCOC(=O)CN[C@H]1CCC2C3CC=C4C[C@@H](O)CC[C@]4(C)C3CC[C@@]21C (some centres not stated) | 3.53 µM | 14.3 µM
CCOC(=O)c1ccc2c(c1)C(=O)N(C1CCCCC1)C2=O | 85 µM | > 100 µM
CCc1ccc(NC(=S)/N=C(\N)Nc2nc(C)c3cc(CC)ccc3n2)cc1 | 10.9 µM | 21.1 µM
CC(C)(C)c1ccc(-c2nc(-c3ccncc3)no2)cc1 | 35.2 µM | 47.6 µM
C/C(=N/Nc1cc(-c2ccccc2)nc(-c2ccccc2)n1)c1ccc(O)cc1 | 9.73 µM | 12.7 µM
c1ccc(-c2ccc(C(c3ccccc3)n3ccnc3)cc2)cc1 (configuration not stated) | 23.2 µM | 26.4 µM
